Two molecules from ChEMBL document CHEMBL5576107, “Wajeepeptin, a Cytotoxic and Antitrypanosomal Cyclic Depsipeptide from a Marine Moorena sp. Cyanobacterium” (J Nat Prod, 2024) can be followed below.

Structures are written as SMILES. Activity calls are given as the source filed them. The calls are words filed in the database; no cut-off is given here. Starred links: 1 amine or outer side, 2 acyl side, 3 side chain; linkers in the order of their positions; H or OH if unused. Non-standard residues stand in square brackets, D forms with d. Residues, ends and D or L forms follow the SMILES beside them. X1 = CC[C@@H](N[*:1])[C@H](C)C(=O)[*:2]; NMeI = CC[C@H](C)[C@H](NC)C(=O)O; NMeV = CN[C@H](C(=O)O)C(C)C; Hiv = CC(C)[C@H](O)C(=O)O; NMeA = CN[C@@H](C)C(=O)O; Lac = C[C@H](O)C(=O)O

As usually defined, the IC50 is the concentration that inhibits the measured activity by half. A higher IC50 goes with a need for much substance.

The subject of experiment [1] is HeLa. Briefly: Antiproliferative activity against human HeLa cells measured after 72 hrs by MTT assay. The experiment is classed as functional, cell-based. A general note: Tetrazolium assays rely on reduction of a dye to a coloured formazan, in cell work by metabolically active cells.
The subject of experiment [2] is Trypanosoma brucei rhodesiense. Briefly: Antitrypanosomal activity against Trypanosoma brucei rhodesiense IL-1501 measured after 69 hrs by alamar blue staining based microplate fluorescence assay. The experiment is classed as functional, organism-based. The conditions noted are these: IL-1501, 69 h. (In general: Resazurin is reduced to fluorescent resorufin, in cell work by metabolically active cells.)

Experiment [3] has as its system Plasmodium falciparum. Briefly: Antimalarial activity against synchronized asexual blood stage Plasmodium falciparum 3D7 at 10 uM measured after 72 hrs by LDH assay. Type of experiment: functional, organism-based.

Regarding `CC[C@H](C)[C@H]1C(=O)N[C@@H](C)C(=O)N(C)[C@@H](C(C)C)C(=O)N(C)[C@@H](C)C(=O)N[C@@H](C(C)C)C(=O)N(C)[C@@H](C(C)C)C(=O)O[C@@H](C)C(=O)N[C@H](CC)[C@H](C)C(=O)O[C@@H](C(C)C)C(=O)N1C` (cyclo(A[NMeV][NMeA]V[NMeV][Lac][X1][Hiv][NMeI])), the half-maximal inhibitory concentration (IC50) is 3700 nM in experiment [1] and 730 nM in experiment [2]. Moreover, the outcome in experiment [3] was inactive.

In turn, `N=C(N)c1ccc(OCCCCCOc2ccc(C(=N)N)cc2)cc1` [PENTAMIDINE] showed an IC50 in experiment [2] of 6.3 nM.
